Each structure is given as a SMILES string. Where “and” joins values, the source holds several entries; their conditions need not be identical. Equal entries are not always repeated.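 Protocol summary: plate cells (96-well), add compound at 5 concentrations, incubate 48 h, interpolate endpoints linearly. The concentration for 50% growth inhibition is given as GI50. TGI denotes the concentration required for complete inhibition of growth.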 Some results are limits rather than exact numbers.

Among the test systems are 786-0 renal; ACHN renal; COLO 205 colon; DU-145 prostate; KM12 colon; NCI-H522 lung; OVCAR-5 ovarian; RXF 393 renal; SF-539 CNS; SNB-75 CNS.
What all share (assay): NCI anticancer screen, dose series, 48 h

Regarding `COC(=O)c1c2c(c(C)[n+]([O-])c1C)C(=O)C=C(NCc1ccc(OC)cc1)C2=O`, the GI50 is 5.48 µM in the assay on 786-0 renal; 1.98 µM with ACHN renal; 0.831 µM with COLO 205 colon; 2.32 µM with DU-145 prostate; 1.67 µM with KM12 colon; 1.82 µM with NCI-H522 lung. Moreover, the GI50 in the assay on OVCAR-5 ovarian is 2.3 µM; with RXF 393 renal it was 2.02 µM; with SF-539 CNS, 1.77 µM; in the assay with SNB-75 CNS it was 5.12 µM. The TGI worked out at 23.3 µM in the assay on 786-0 renal; 5.23 µM in the assay on ACHN renal; 2.45 µM in the assay with COLO 205 colon; 5.89 µM in the assay on DU-145 prostate; 6.63 µM in the assay with KM12 colon; 5.16 µM in the assay on NCI-H522 lung. The TGI in the assay on OVCAR-5 ovarian was determined as 6.13 µM; in the assay on RXF 393 renal, 5.99 µM; with SF-539 CNS, 4.36 µM; with SNB-75 CNS, 9.53 µM.

For `COc1ccc(-c2nc3ncccn3c2/C=C/C(=O)c2cc(OC)c(OC)c(OC)c2)cc1`, the GI50 in the assay on 786-0 renal is 1.84 µM; with ACHN renal it was 1.57 µM; in the assay with COLO 205 colon it was 1.7 µM; in the assay with DU-145 prostate, 2.55 µM; in the assay on KM12 colon, 1.61 µM; with NCI-H522 lung it was 1.66 µM. For the same compound, the GI50 in the assay on OVCAR-5 ovarian was 1.53 µM; in the assay on RXF 393 renal, 1.11 µM; in the assay with SF-539 CNS, 1.36 µM; in the assay with SNB-75 CNS, 1.89 µM. The TGI in the assay with 786-0 renal turned out to be 5.51 µM; in the assay on ACHN renal, 3.17 µM; in the assay with COLO 205 colon it was 3.07 µM; in the assay on DU-145 prostate it was 9.48 µM; with KM12 colon it was 3.04 µM; in the assay on NCI-H522 lung, 3.89 µM. For the same compound, the TGI came out at 3.59 µM with OVCAR-5 ovarian, 2.57 µM in the assay on RXF 393 renal, 2.95 µM in the assay with SF-539 CNS and 5.05 µM in the assay with SNB-75 CNS.

Regarding `O=[N+]([O-])c1ccc(N=Nc2c(O)ccc3ccccc23)cc1`, the TGI with 786-0 renal, in the assay with ACHN renal, in the assay with COLO 205 colon, in the assay with DU-145 prostate, in the assay with KM12 colon and with NCI-H522 lung was > 100 µM throughout. Further, the TGI with OVCAR-5 ovarian, in the assay with RXF 393 renal, in the assay with SF-539 CNS and in the assay with SNB-75 CNS was > 100 µM throughout. In addition, the GI50 was 31.3 µM and > 100 µM in the assay on ACHN renal; 19.7 µM and > 100 µM with KM12 colon; 35.9 µM in the assay on NCI-H522 lung; 38 µM and > 100 µM in the assay on RXF 393 renal; 39.3 µM and > 100 µM in the assay on SNB-75 CNS.

For `Cc1cc(I)cc(CN(C)CCN2CCCC2)c1O`, the GI50 is 21.1 µM with 786-0 renal; 25.7 µM with ACHN renal; 19 µM in the assay on COLO 205 colon; 32.3 µM with DU-145 prostate; 32.8 µM in the assay on KM12 colon; 19.9 µM in the assay with NCI-H522 lung. Also, the GI50 with OVCAR-5 ovarian is 32.8 µM; in the assay with RXF 393 renal, 20.7 µM; with SF-539 CNS, 21 µM; in the assay with SNB-75 CNS, 17.5 µM. The TGI with 786-0 renal is 59.8 µM; in the assay with ACHN renal it was > 84.4 µM; in the assay on COLO 205 colon, 40.2 µM; in the assay with DU-145 prostate, > 100 µM; with KM12 colon, 81.3 µM; with NCI-H522 lung it was 43.4 µM. Moreover, the TGI is > 93.6 µM with OVCAR-5 ovarian, 63.6 µM in the assay with RXF 393 renal, 53.3 µM with SF-539 CNS and 47.2 µM in the assay with SNB-75 CNS.

With `Cc1ccc(C(=O)C(Cl)C(Cl)c2ccc(C)cc2)cc1` (stereo not given), the TGI with 786-0 renal came to 4.61 µM; in the assay on ACHN renal, 3.13 µM; in the assay with COLO 205 colon, 4.1 µM; in the assay on DU-145 prostate, 15.3 µM; in the assay with KM12 colon, 13.9 µM; in the assay on NCI-H522 lung, 10.7 µM. Besides, the TGI was found to be 33 µM in the assay on OVCAR-5 ovarian, 23.4 µM with RXF 393 renal, 6.38 µM in the assay with SF-539 CNS and 23 µM with SNB-75 CNS.

Consider `C=C[C@H]1CCC/C=C/[C@@H]2C[C@H](O)C[C@H]2[C@H](O)/C=C/C(=O)O1`, for which the GI50 in the assay on 786-0 renal was 0.0184 µM; in the assay with ACHN renal, 0.0404 µM; in the assay with COLO 205 colon, 0.0194 µM; in the assay on DU-145 prostate, 0.0771 µM; with KM12 colon, 0.022 µM; with NCI-H522 lung, 0.0673 µM. Besides, the GI50 in the assay with OVCAR-5 ovarian is 0.0504 µM; in the assay on RXF 393 renal, < 0.0137 µM; in the assay on SF-539 CNS, 0.0531 µM; in the assay on SNB-75 CNS, < 0.01 µM. In addition, the TGI was 0.0377 µM with 786-0 renal; > 100 µM in the assay on ACHN renal; 0.0365 µM in the assay on COLO 205 colon; > 100 µM in the assay on DU-145 prostate; 0.0507 µM with KM12 colon; 0.356 µM in the assay with NCI-H522 lung. Besides, the TGI is > 100 µM with OVCAR-5 ovarian, < 0.0193 µM in the assay on RXF 393 renal, > 100 µM in the assay on SF-539 CNS and > 100 µM in the assay on SNB-75 CNS.

In the case of `COc1ccc(CNc2c3ccccc3nc3ccc(OC)cc23)cc1`, the GI50 was 2.02 µM in the assay with 786-0 renal; 2.72 µM with ACHN renal; 1.76 µM in the assay with COLO 205 colon; 3.16 µM in the assay on DU-145 prostate; 3.3 µM with KM12 colon; 3.17 µM in the assay on NCI-H522 lung. Moreover, the GI50 in the assay with OVCAR-5 ovarian is 2.64 µM; with RXF 393 renal, 1.52 µM; in the assay on SF-539 CNS, 1.96 µM; in the assay on SNB-75 CNS it was 2.19 µM. The TGI in the assay with 786-0 renal was 4.55 µM; in the assay with ACHN renal, 10.1 µM; with COLO 205 colon, 3.99 µM; with DU-145 prostate, 10.9 µM; in the assay on KM12 colon, 12.4 µM; with NCI-H522 lung it was 14.3 µM. Besides, the TGI in the assay with OVCAR-5 ovarian was determined as 9.52 µM; in the assay with RXF 393 renal, 3.04 µM; in the assay on SF-539 CNS, 4.13 µM; with SNB-75 CNS, 8.24 µM.

With `NC(=O)c1ccc2c(-c3ccnc(NCCCO)n3)c(-c3ccc(F)cc3)nn2c1`, the GI50 is > 25 µM in the assay with 786-0 renal; > 17.1 µM in the assay on ACHN renal; > 20.6 µM in the assay with COLO 205 colon; > 22.8 µM in the assay with DU-145 prostate; > 25 µM in the assay with KM12 colon; > 25 µM in the assay on NCI-H522 lung. Further, the GI50 is > 25 µM in the assay on OVCAR-5 ovarian, 21.4 µM in the assay on RXF 393 renal, > 25 µM with SF-539 CNS and > 10 µM in the assay with SNB-75 CNS. The TGI in the assay with 786-0 renal, in the assay with ACHN renal, in the assay on COLO 205 colon, in the assay with DU-145 prostate, in the assay with KM12 colon and in the assay on NCI-H522 lung was > 25 µM throughout. Moreover, the TGI with OVCAR-5 ovarian, in the assay with RXF 393 renal, with SF-539 CNS and with SNB-75 CNS was > 25 µM in each case.
